We go through two compounds from publication PMC4869175, “Evidence that phytochrome functions as a protein kinase in plant light signalling” (Nature Communications, 2016).

In assay [1] the target is T1, photosensory core of AsphyA (66-610) (Avena sativa, UniProt P06593).
T1 construct: the PAS-GAF-PHY photosensory core (66–610aa) were also cloned into pPIC3.5K; made in house; host or cells: Pichia pastoris GS115
T1 sequence (P06593 66-610): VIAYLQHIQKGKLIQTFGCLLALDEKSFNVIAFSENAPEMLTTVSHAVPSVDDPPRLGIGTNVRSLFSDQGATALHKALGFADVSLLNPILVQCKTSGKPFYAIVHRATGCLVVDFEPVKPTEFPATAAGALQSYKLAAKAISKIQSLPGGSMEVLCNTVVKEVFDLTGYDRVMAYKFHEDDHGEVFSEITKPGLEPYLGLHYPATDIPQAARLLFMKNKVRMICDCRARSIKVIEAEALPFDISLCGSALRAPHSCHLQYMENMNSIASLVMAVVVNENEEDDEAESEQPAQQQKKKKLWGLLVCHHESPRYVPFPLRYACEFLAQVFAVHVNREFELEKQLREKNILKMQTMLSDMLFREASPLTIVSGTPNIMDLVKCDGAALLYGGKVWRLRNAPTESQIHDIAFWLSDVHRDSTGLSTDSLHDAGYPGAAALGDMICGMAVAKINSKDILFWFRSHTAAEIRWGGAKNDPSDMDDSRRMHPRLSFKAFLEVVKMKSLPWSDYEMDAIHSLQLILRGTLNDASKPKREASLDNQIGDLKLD
Kind of assay: Photoaffinity labelling of the photosensory core with 8-azido-ATP and competition by unlabeled ATP. The format is binding. To be noted: 10 μM 8-azido-ATP. The protocol:
To investigate ATP-binding to AsphyA proteins, photoaffinity labelling experiments were carried out using 8-N3-ATP-biotin-long chain-hydrazone (8-azido-ATP), which were purchased from Affinity Labeling Technologies, Inc. Purified phytochrome proteins (1.0 μg) were pre-incubated for 30 min on ice in 50 μl of photoaffinity labelling buffer (20 mM Tris-HCl, pH 7.0, 2 mM EDTA, 2 mM MgCl2 and 150 μM ATP), and then 8-azido-ATP was applied with indicated concentrations. After incubation for 5 more min on ice, ultraviolet light at 254 nm was then irradiated for 90 s using a hand-held ultraviolet lamp at 4 cm from the surface of the reaction mixtures. Immediately after photoaffinity labelling, reactions were stopped by adding SDS sample buffer, and the 8-azido-ATP-labelled phytochromes were detected with 1:2,000 avidin-HRP (A-115, Boston Biochem). After development, the images were scanned and opened by ImageJ, a Java-based image-processing software, to quantitate the photoaffinity labelling with azido-ATP analogues. Background signal was subtracted before normalization. […]
Supplementary Figure 11. […] 8-azido-ATP labeled proteins were then detected using avidin-HRP. […] The band intensities were quantified using ImageJ software, and the percentages of 8-azido-ATP labeling were normalized to the 66-610 protein signals. […]

Assay [2] deals with T1, photosensory core of AsphyA (66-610). The experiment in a line: Binding parameters of ATP by Scatchard plot using BODIPY-FL-ATP. To be noted: as restated in Discussion; Scatchard plot with BODIPY-FL-ATP; read-out: Kd value (ATP-binding site). The protocol:
(§1) To estimate dissociation constant (Kd) and the number of binding sites (n) of ATP in AsphyA proteins, an ATP analogue BODIPY-FL-ATP (BODIPY FL 2′-(or-3′)-O-(N-(2-aminoethyl)urethane) adenosine triphosphate; Molecular Probes) was used. 0.5 μM AsphyA proteins were incubated with increasing concentration of BODIPY-FL-ATP (0.5–5 μM) for 10 min at 30 °C, and free (unbound) ATP analogue was separated from the ATP analogue-protein complex by using Amicon Ultra Centrifugal Filter with MWCO of 10,000 Da for 5 min at 4,000g. The spectrophotometric absorbance was then measured to determine the BODIPY-FL-ATP concentrations within flow-through and the complex solutions by using Shimadzu UV-1800 spectrophotometer. […] The concentrations of BODIPY-FL-ATP were also double-checked by measuring the emission intensity of BODIPY fluorophore at the excitation wavelength of 500 nm and emission wavelength of 515 nm. The fluorescence of free BODIPY-FL-ATP in the absence of any protein component was used as a linear standard curve. The Kd and n values were then calculated by a Scatchard plot of r/[BODIPY-FL-ATP]free versus r, where r is the molar ratio of [BODIPY-FL-ATP]bound to [AsphyA]total.
(§2) Supplementary Figure 12. Determination of binding parameters of ATP in AsphyA proteins. The number of binding sites (n) and dissociation constant (Kd) of ATP in AsphyA proteins were determined by Scatchard plots using an ATP analogue, BODIPY-FL-ATP (BODIPY® FL 2′-(or-3′)-O-(N-(2-aminoethyl)urethane) adenosine triphosphate). The n and Kd values were calculated from the slopes (-1/Kd) and x-axis intercepts (n) of the Scatchard plot of r/[BODIPY-FL-ATP]free versus r, where r was the molar ratio of [BODIPY-FL-ATP]bound to [AsphyA]total. The n values of full-length (FL) AsphyA and photosensory core (66-610) were both calculated at around one per polypeptide, and the Kd values were calculated at approximately 0.87 × 10^-6 M for FL-AsphyA, 0.72 × 10^-6 M for […]
(§3) level, possibly due to too low ATP binding.
(§4) (1 picture or pasted object on this page, not shown here)

For assay [3], the target named is T2, K411L AsphyA mutant (Avena sativa, UniProt P06593, K411L).
T2 construct: After preparing purified full-length AsphyA mutants; made in house; host or cells: Pichia pastoris GS115
Described as above. The protocol: as §1, §2, §3, §4

The target of assay [4] is T3, D422R AsphyA mutant (Avena sativa, UniProt P06593, D422R).
T3 construct: After preparing purified full-length AsphyA mutants; made in house; host or cells: Pichia pastoris GS115
The assay is described as above. To be noted: Scatchard plot with BODIPY-FL-ATP; result in words. The method, then: as §1, §2, §3, §4

For orientation: Kd means the free concentration of one partner at which half of the binding sites on the other are occupied at equilibrium, for simple one-to-one binding.

T2 sequence (P06593 whole entry K411L): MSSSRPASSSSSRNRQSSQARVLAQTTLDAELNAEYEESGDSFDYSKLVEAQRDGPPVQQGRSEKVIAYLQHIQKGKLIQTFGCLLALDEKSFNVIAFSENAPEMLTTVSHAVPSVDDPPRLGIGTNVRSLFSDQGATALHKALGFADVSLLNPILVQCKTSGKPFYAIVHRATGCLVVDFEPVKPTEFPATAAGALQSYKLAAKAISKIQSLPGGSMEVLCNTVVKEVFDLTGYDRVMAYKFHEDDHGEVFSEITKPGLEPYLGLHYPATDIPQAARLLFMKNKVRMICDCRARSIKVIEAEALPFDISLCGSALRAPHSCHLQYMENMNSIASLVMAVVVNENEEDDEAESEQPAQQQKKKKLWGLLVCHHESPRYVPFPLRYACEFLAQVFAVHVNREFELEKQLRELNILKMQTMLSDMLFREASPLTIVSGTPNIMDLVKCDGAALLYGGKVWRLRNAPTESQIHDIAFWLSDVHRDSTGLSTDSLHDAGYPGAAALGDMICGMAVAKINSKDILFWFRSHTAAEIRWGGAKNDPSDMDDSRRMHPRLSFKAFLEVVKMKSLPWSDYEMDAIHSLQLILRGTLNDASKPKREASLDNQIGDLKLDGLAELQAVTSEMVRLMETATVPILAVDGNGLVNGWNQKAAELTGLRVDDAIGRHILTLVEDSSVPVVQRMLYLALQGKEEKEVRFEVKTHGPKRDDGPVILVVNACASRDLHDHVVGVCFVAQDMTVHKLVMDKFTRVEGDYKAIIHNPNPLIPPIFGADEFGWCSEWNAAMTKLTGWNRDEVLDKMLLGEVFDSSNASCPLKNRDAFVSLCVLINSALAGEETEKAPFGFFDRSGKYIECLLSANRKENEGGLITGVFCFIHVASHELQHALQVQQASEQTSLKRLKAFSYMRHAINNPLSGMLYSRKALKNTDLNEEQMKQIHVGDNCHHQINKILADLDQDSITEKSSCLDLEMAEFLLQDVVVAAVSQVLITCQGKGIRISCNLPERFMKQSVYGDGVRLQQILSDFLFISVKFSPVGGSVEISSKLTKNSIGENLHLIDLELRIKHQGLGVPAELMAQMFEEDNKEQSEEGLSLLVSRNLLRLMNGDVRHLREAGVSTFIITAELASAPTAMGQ
T3 sequence (P06593 whole entry D422R): as the sequence (P06593 whole entry K411L) above, with L411K, D422R counted along it

As to “8-N3-ATP-biotin-long chain-hydrazone [8-azido-ATP]”, in assay [1] (UV 90 s, Pr and Pfr forms), the “photoaffinity labelling of the photosensory core” value is recorded as “labelled”.

Regarding `Nc1ncnc2c1ncn2[C@@H]1O[C@H](COP(=O)(O)OP(=O)(O)OP(=O)(O)O)[C@@H](O)[C@H]1O` [ATP], the “concentration of unlabeled ATP that inhibited 8-azido-ATP photoaffinity labeling” value in assay [1] (unlabeled ATP 0-30 mM) is listed as “approximately 7.5 mM”. The dissociation constant Kd is 0.72 µM in assay [2] and approximately 1.32 µM in assay [3]. The “dissociation constant (Kd) of ATP” value in assay [4] is listed as “could not obtain the Kd value at micromolar level”.
